According to publication PMC8321240, “Cell-Type-Specific High Throughput Toxicity Testing in Human Midbrain Organoids” (Frontiers in Molecular Neuroscience, 2021):

Assays:
[1] = system: 2D cultured dopaminergic neurons; design: method as in Sharma et al., 2010; conditions: ref Sharma et al., 2010; cited from earlier work
[2] = system: automated midbrain organoids (AMOs); test: Viability of 3D AMOs (CellTiter-Glo 3D) in the 2D vs 3D comparison; format: cell-based, human; conditions: for IC50: Homo sapiens, 48 h exposure from day 50
Description: We cultured AMOs for 47 days in our automated system as described above. On day 47, we exchanged the organoid medium to a minimal tox medium (TM, consisting of DMEM/F-12 with 1% N2 supplement and 1% penicillin/streptomycin/glutamine) to reduce possible interference from antioxidants in the B27 media supplement. The next day, we treated the AMOs with the compounds from the library at a concentration of 100 μM in TM with some deviations due to solubility (see Supplementary Table 1 for a complete list of compounds including their final concentrations in the screen). DMSO control samples contained 0.5% (v/v) DMSO, which is equivalent to the amount of solvent in the samples that received compound treatment. After 48 h of incubation with the compounds, we either directly processed the organoids for the 48-h time point or renewed the compounds in TM once to achieve 96 h of incubation. Following either 48 or 96 h of compound incubation, we used the CellTiter-Glo 3D cell viability assay (Promega) to measure the viability of individual organoids, as previously described (Renner et al., [2020]). Briefly, the 96-well plates of AMOs and the reagents were brought to room temperature for 30 min. We adjusted the media volume of each well to 55 μl and added an equal volume (55 μl) of the CellTiter-Glo 3D reagent. Next, the samples were shaken on a Thermomixer (Eppendorf) at 900 rpm for 5 min and then incubated for 25 min at room temperature while protected from light. To minimize signal cross-talk between adjacent wells, we transferred the contents of the clear 96-well culture plates to white/opaque 384-well Lumitrac plates (Greiner) with two technical replicates (20 μl each) per sample, after the incubation. We recorded the luminescence immediately after the transfer using a Synergy Mx plate reader (BioTek). We outputted the results to Microsoft Excel for reformatting and then transferred them to GraphPad Prism v9.0.1 (Graphpad Software, Inc.) for plotting and statistical analysis.
To compare the toxic effects of compounds on AMOs and 2D-cultured midbrain dopaminergic neurons, we seeded and cultured both in parallel and generated them from the same smNPC starting cell population. For 2D dopaminergic neuron differentiation, smNPCs were seeded in 1% (v/v in KO-DMEM/F-12) Matrigel-coated 6-well plates and standard smNPC medium, following digestion by accutase as described above. From day 2 onwards, they were treated identically with the AMOs (i.e., they received the same media at the same timepoints). To work with the 2D dopaminergic neurons in a screening setting (and have the same plate format as the AMOs), we reseeded them to flat-bottom 96-well plates (“μCLEAR”, black, Greiner) at a density of 70,000 cells/well on day 48. On day 49, the medium of both 2D mDA neurons and 3D AMOs was exchanged to tox medium. The next day, we treated them with different concentrations (0.01, 0.1, 1, 10, 50, 100, 200, 500, and 1,000 μM; controls received the corresponding solvent at an amount equivalent to the highest compound concentration; n = 6 per concentration) of the compounds lindane (Sigma-Aldrich, in ethanol) and 6-hydroxydopamine hydrochloride (Sigma Aldrich, in DMSO) in tox medium. After 48 h of incubation, we measured the samples’ viability. For the AMOs, we used the CellTiter-Glo 3D cell viability assay as described above. We measured the 2D mDA neuron viability with the CellTiter-Glo 2.0 cell viability assay (Promega) according to the manufacturer’s instructions. In short, we brought the sample plates and reagents to room temperature for 30 min. We adjusted the media volume of the samples to 50 μl and added an equal volume (50 μl) of the CellTiter-Glo 2.0 reagent. We let the plate shake for 2 min at 900 rpm on a Thermomixer and then incubated them for 10 min at room temperature and protected from light. Immediately afterward, we measured the luminescence on a Synergy Mx plate reader. […]

[3] = system: 2D-cultured midbrain dopaminergic (mDA) neurons; test: Viability of 2D-cultured mDA neurons (CellTiter-Glo 2.0) in the 2D vs 3D comparison; format: cell-based; conditions: Homo sapiens, Neuron, 2D mDA neurons, 48 h exposure from day 50
Description: To compare the toxic effects of compounds on AMOs and 2D-cultured midbrain dopaminergic neurons, we seeded and cultured both in parallel and generated them from the same smNPC starting cell population. For 2D dopaminergic neuron differentiation, smNPCs were seeded in 1% (v/v in KO-DMEM/F-12) Matrigel-coated 6-well plates and standard smNPC medium, following digestion by accutase as described above. From day 2 onwards, they were treated identically with the AMOs (i.e., they received the same media at the same timepoints). To work with the 2D dopaminergic neurons in a screening setting (and have the same plate format as the AMOs), we reseeded them to flat-bottom 96-well plates (“μCLEAR”, black, Greiner) at a density of 70,000 cells/well on day 48. On day 49, the medium of both 2D mDA neurons and 3D AMOs was exchanged to tox medium. The next day, we treated them with different concentrations (0.01, 0.1, 1, 10, 50, 100, 200, 500, and 1,000 μM; controls received the corresponding solvent at an amount equivalent to the highest compound concentration; n = 6 per concentration) of the compounds lindane (Sigma-Aldrich, in ethanol) and 6-hydroxydopamine hydrochloride (Sigma Aldrich, in DMSO) in tox medium. After 48 h of incubation, we measured the samples’ viability. For the AMOs, we used the CellTiter-Glo 3D cell viability assay as described above. We measured the 2D mDA neuron viability with the CellTiter-Glo 2.0 cell viability assay (Promega) according to the manufacturer’s instructions. In short, we brought the sample plates and reagents to room temperature for 30 min. We adjusted the media volume of the samples to 50 μl and added an equal volume (50 μl) of the CellTiter-Glo 2.0 reagent. We let the plate shake for 2 min at 900 rpm on a Thermomixer and then incubated them for 10 min at room temperature and protected from light. Immediately afterward, we measured the luminescence on a Synergy Mx plate reader. We outputted the results to Microsoft Excel and GraphPad Prism v9.0.1 for reformatting, plotting, and analysis. Data processing was performed as outlined for the CellTiter-Glo 3D-based viability assay above, except for the averaging of technical replicates, as measurements were performed directly in the culture plate without additional technical replicates.
All other data analysis steps including the statistical analysis to identify significant differences in toxicity between 2D and 3D (via multiple unpaired t-tests with the same parameters as above, corrected for using the Bonferroni-Dunn method, and considering padj <0.05 as significant), as well as dose-response curve fitting, were performed as described in detail above. The IC50 values were taken from the same regression/analysis as the dose-response curves.

[4] = system: automated midbrain organoids (AMOs); test: Primary organoid viability screen (ATP-based CellTiter-Glo 3D); format: cell-based, human; conditions: approx. 100 μM, 48 or 96 h, two AMO lines
Description: We cultured AMOs for 47 days in our automated system as described above. On day 47, we exchanged the organoid medium to a minimal tox medium (TM, consisting of DMEM/F-12 with 1% N2 supplement and 1% penicillin/streptomycin/glutamine) to reduce possible interference from antioxidants in the B27 media supplement. The next day, we treated the AMOs with the compounds from the library at a concentration of 100 μM in TM with some deviations due to solubility (see Supplementary Table 1 for a complete list of compounds including their final concentrations in the screen). DMSO control samples contained 0.5% (v/v) DMSO, which is equivalent to the amount of solvent in the samples that received compound treatment. After 48 h of incubation with the compounds, we either directly processed the organoids for the 48-h time point or renewed the compounds in TM once to achieve 96 h of incubation. […] We recorded the luminescence immediately after the transfer using a Synergy Mx plate reader (BioTek). […]
In detail: All compounds including their controls were arrayed on a single 96-well plate (see Supplementary Table 1 for well positions), and replicated across three plates for a total of n = 3 replicates per condition (except AMO line 2 at 48 h n = 2). […] During our analysis, we first averaged the two technical replicates from the luminescence measurement in Microsoft Excel, yielding one averaged luminescence value for each well of the original 96-well AMO plates. Then, we normalized the luminescence detected in each well to the mean luminescence of the four DMSO controls of the same plate to get a relative organoid viability value. Normalization was performed separately for each plate to account for and correct for potential differences during the luminescence measurements. […] We further assessed the homogeneity of the AMOs by calculating the coefficient of variation (CV) for the relative viabilities of the DMSO controls (i.e., we divided the standard deviations by the corresponding means and averaged the resulting CV values for the DMSO controls). […]

[5] = system: automated midbrain organoids (AMOs); test: Dose-response analysis, ATP-based overall AMO viability; format: cell-based, human; conditions: 0.01-1,000 μM, 48 h + 6 days; viability, Map2 and TH readouts
Description: AMOs were cultured as described above for 47 days. On day 47, we exchanged their medium to tox medium (TM), initially without the addition of any compounds. […] For each compound, we included n = 8 controls per compound treated with the corresponding solvent at an amount equivalent to the highest compound concentration. To assess viability and cell type-specific toxicity in parallel and under the same conditions, we treated all samples with the compounds for 48 h, then exchanged their medium to standard culture medium without compounds and maintained them for an additional 6 days before analysis to allow breakdown and removal of cellular debris. Organoid viability and cell type-specific toxicity were analyzed as described for the primary screens. Here, we acquired five confocal planes spaced 36.6 μm apart in our Operetta high content imager. The image analysis of the AMOs for cell type-specific toxicity assessment required minor adjustments to account for the individual properties of the staining. […] For Map2, we performed Gaussian smoothing with a width of 10 px and omitted the additional sliding parabola filter. The other steps were performed as outlined for the primary cell-type-specific toxicity screen. […] In detail: The dose-response series, including the individual solvent controls, was performed for every compound on a separate 96-well plate of AMOs with initially n = 8 organoids per concentration. […] Data processing, including normalizations, was performed for each individual compound/plate as outlined above for the primary screens. Significant differences between the Map2 and TH content were also determined in GraphPad Prism as described for the primary screen and with the same parameters (multiple comparisons were performed for the different concentrations instead of compounds).

[6] = system: TH+ dopaminergic and Map2+ general neurons in AMOs; test: Dose-response analysis, TH and Map2 content by high content imaging; format: cell-based, human; conditions: 48 h + 6 days
Description: All processing steps were conducted in an HTS-compatible automated liquid handling system (ALHS, a Biomek FXP liquid handling station). To quantify different cellular subpopulations within the AMOs, we employed our previously described (Renner et al., [2020], [2021b]) ALHS-compatible workflow for combined whole-mount staining and clearing, with minor modifications. We fixed the AMOs with 4% PFA (VWR) for 10–15 min and stained the entire aggregates with primary and secondary antibodies for 6 days each. The antibodies used in this study were as follows. Primary: mouse anti-Map2 (1:1,000, Merck Millipore, cat#: MAB3418) and rabbit anti-TH (1:500, Abcam, cat#: ab112). Secondary: donkey anti-mouse IgG, Alexa Fluor 488 conjugated (1:1,000, Thermo Fisher, cat#: A-21202) and donkey anti-rabbit IgG, Alexa Fluor 647 conjugated (1:1,000, Thermo Fisher, cat#: A-31573). The antibodies were diluted in blocking and permeabilization solution consisting of 6% BSA, 0.5% Triton-X 100 (Roth), 0.1% (w/v) sodium azide (Sigma-Aldrich) in PBS (Sigma-Aldrich) and immediately added after fixation following a triple rinse with PBS. We renewed the antibody solutions once after three days. As a nuclear counter stain, we added DAPI (1 μg/ml, Sigma-Aldrich) to the solution containing the secondary antibodies. Between primary and secondary antibody application and after finishing the secondary antibody incubation, we washed the samples overnight with 0.1% Triton X-100 in PBS, with a total of five exchanges of the washing solution. After the whole-mount staining, we performed BABB-based tissue clearing (Dent et al., [1989]) to allow image acquisition with single-cell resolution of the entire aggregates. For this purpose, we first dehydrated the AMOs via a stepwise methanol (Roth) series (25%, 50%, 70%, 90%, and 100%, each for 15 min). For clearing and imaging, we transferred them to organic solvent-resistant cyclo-olefin 96-well flat-bottom plates (“Screenstar”, Greiner Bio-One). Finally, we incubated the samples for 30 min in 1:1 (v/v) methanol/BABB (BABB consisted of benzyl alcohol (Sigma-Aldrich) and benzyl benzoate (Sigma-Aldrich) at a 1:1 (v/v) ratio) and then kept them in 100% BABB in the dark for storage and subsequent automated high content confocal fluorescent analysis.
We prepared and treated the AMOs with the compounds as described for the primary viability screen. On day 50, after 48 h of compound incubation, we replaced the medium with standard AMO medium and maintained the AMOs for 6 additional days under standard culture conditions. This additional time allows the cells killed by the compounds to be cleared from the aggregates. After the 6 days, we fixed the organoids with 4% PFA, whole-mount-stained them for TH and Map2, and tissue-cleared them as described above. To achieve uniform aggregate positioning within the wells before imaging, we tilted the plates off the horizontal plane at 60 degrees for a minimum of 5 min. We performed automated image acquisition of entire 96-well plates on an Operetta high content imager (Perkin Elmer) and analyzed images in the Harmony 4.1 software and/or Columbus version 2.6.0 as previously described (Renner et al., [2020]), with adjustments to account for the individual properties of the staining and samples. We acquired three medial planes for each organoid, spaced 36.6 μm apart to avoid double-sampling individual morphological features. For the analysis, we defined the organoid region in each image by summing all channels, removed small localized features with a median filter (10 px), and identified putative organoids/regions of interest (ROIs) with the “find image region” function. To identify bona fide AMOs and exclude image artifacts and dust, we selected the ROIs with an area >9,000 μm^2, roundness >0.4, and mean DAPI intensity >190 arbitrary brightness units (abu).

[7] = 0.01-1,000 μM (rotenone up to 100 μM), both AMO lines

Row | Structure (SMILES) | toxicity of lindane alone [1] | concentrations with significant 2D vs 3D viability difference ([2]; AMO line 1, 48 h) [µM] | concentrations with significant 2D vs 3D viability difference ([2]; AMO line 2, 48 h) [µM] | IC50 ([2]; AMO line 1, 3D) [µM] | IC50 ([2]; AMO line 2, 3D) [µM] | toxicity in 3D AMOs compared with 2D-cultured dopaminergic neurons ([2]; both cell lines, 48 h, 0.01-1,000 μM, padj < 0.05) | IC50 ([3]; AMO line 1 cell line) [µM] | IC50 ([3]; AMO line 2 cell line) [µM] | toxicity in the primary screens [4] | overall toxicity in the dose-response experiments [5] | Map2 content (general neurons) [6, 7] | TH content (dopaminergic neurons) [6, 7] | TH levels compared to Map2 levels ([6]; dose-response, padj < 0.05)
1 | Cl[C@H]1[C@H](Cl)[C@@H](Cl)[C@@H](Cl)[C@H](Cl)[C@H]1Cl [lindane] | only mild toxicity | ≥ 200 | 200 | 130 | 130 | significantly more toxic in AMOs than in the 2D-cultured dopaminergic neurons | 202 | 201 | strong possible toxicity |  |  |  | 
2 | O=C1C2CC=CCC2C(=O)N1SC(Cl)(Cl)Cl (centres unmarked) [captan] |  |  |  |  |  |  |  |  | intermediate toxicity | intermediate compared to ASS and the more toxic compounds | reduced | reduced | significantly reduced TH levels compared to Map2 over a broad range of concentrations
